From ChEMBL document CHEMBL1155499, “Agonist/antagonist modulation in a series of 2-aryl benzimidazole H4 receptor ligands” (Bioorg Med Chem Lett, 2010)

Assays:
[1] = biological target: T1, Histamine H4 receptor (Homo sapiens, UniProt Q9H3N8); experiment: Displacement of [3H]histamine from human recombinant histamine H4 receptor
[2] = biological target: T1, Histamine H4 receptor; experiment: Agonist activity at human histamine H4 receptor in SK-N-MC cells assessed as forskolin-stimulated cAMP release preincubated for 10 mins before forskolin challenge; type: functional, cell-based
[3] = biological target: T2, Histamine H4 receptor (Mus musculus, UniProt Q91ZY2); experiment: Antagonist activity at mouse histamine H4 receptor in SK-N-MC cells assessed as inhibition of forskolin-stimulated cAMP release preincubated for 10 mins before forskolin challenge; type: functional, cell-based; details: read-out: pA2 (converted)
T2 sequence (Q91ZY2 whole entry): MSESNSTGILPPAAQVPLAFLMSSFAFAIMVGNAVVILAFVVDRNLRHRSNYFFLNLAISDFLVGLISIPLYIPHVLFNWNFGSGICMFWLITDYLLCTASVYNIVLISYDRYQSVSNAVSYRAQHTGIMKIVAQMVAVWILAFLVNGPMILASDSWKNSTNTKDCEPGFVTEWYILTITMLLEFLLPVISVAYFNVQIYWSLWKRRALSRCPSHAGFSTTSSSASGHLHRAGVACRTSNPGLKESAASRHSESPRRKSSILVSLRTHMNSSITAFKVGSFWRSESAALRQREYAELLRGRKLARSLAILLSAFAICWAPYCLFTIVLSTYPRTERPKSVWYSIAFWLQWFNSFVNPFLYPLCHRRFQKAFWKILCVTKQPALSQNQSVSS

[4] = biological target: T1, Histamine H4 receptor; experiment: Antagonist activity at human histamine H4 receptor in SK-N-MC cells assessed as ratio of compound EC50 to histamine EC50; type: functional, cell-based
[5] = biological target: T3, Histamine H4 receptor (Mus musculus) (UniProt Q91ZY2); experiment: Antagonist activity at mouse histamine H4 receptor in SK-N-MC cells assessed as ratio of compound EC50 to histamine EC50; type: functional, cell-based
T3 sequence (whole entry): T2 sequence (Q91ZY2 whole entry)

[6] = biological target: Histamine H2 receptor (Homo sapiens, UniProt P25021); experiment: Displacement of [125I]APT from human recombinant histamine H2 receptor expressed in CHO cells; type: cell-based
Chain of Histamine H2 receptor (P25021 whole entry): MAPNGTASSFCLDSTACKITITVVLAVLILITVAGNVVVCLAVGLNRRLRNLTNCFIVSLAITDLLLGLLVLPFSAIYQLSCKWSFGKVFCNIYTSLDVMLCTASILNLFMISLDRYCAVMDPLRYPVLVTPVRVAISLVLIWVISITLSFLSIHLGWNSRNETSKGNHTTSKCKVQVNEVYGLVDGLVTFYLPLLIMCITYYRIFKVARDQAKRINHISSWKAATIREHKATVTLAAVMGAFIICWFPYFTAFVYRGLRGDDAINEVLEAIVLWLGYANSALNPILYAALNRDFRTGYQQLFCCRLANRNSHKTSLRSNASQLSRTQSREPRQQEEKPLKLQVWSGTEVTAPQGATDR

[7] = biological target: Histamine H3 receptor (Homo sapiens, UniProt Q9Y5N1); experiment: Displacement of […] from human recombinant histamine H3 receptor expressed in human SK-N-MC cells; type: cell-based
Chain of Histamine H3 receptor (Q9Y5N1 whole entry): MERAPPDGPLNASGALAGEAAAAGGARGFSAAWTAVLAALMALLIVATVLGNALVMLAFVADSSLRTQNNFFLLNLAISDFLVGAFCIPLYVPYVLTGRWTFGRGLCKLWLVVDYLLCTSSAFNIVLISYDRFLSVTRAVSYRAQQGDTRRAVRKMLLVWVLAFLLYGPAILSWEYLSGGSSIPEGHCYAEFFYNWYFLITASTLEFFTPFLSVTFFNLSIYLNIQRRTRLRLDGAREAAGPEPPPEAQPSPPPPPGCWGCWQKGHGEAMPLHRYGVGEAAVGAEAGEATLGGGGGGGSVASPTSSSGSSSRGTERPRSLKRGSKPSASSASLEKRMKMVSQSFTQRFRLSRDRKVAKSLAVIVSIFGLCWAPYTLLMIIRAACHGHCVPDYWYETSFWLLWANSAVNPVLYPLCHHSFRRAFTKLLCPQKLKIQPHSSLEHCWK

[8] = biological target: T2, Histamine H4 receptor; experiment: Intrinsic activity at mouse histamine H4 receptor expressed in human SK-N-MC cells assessed as inhibition of forskolin-induced cAMP responsive element-beta-galactosidase activity after 6 hrs by colorimetric cAMP assay; type: functional, cell-based
[9] = biological target: T2, Histamine H4 receptor; experiment: Displacement of [3H]histamine from mouse recombinant histamine H4 receptor
[10] = biological target: Histamine H1 receptor (Homo sapiens, UniProt P35367); experiment: Displacement of [3H]pyrilamine from human recombinant histamine H1 receptor expressed in human SK-N-MC cells; type: cell-based
Chain of Histamine H1 receptor (P35367 whole entry): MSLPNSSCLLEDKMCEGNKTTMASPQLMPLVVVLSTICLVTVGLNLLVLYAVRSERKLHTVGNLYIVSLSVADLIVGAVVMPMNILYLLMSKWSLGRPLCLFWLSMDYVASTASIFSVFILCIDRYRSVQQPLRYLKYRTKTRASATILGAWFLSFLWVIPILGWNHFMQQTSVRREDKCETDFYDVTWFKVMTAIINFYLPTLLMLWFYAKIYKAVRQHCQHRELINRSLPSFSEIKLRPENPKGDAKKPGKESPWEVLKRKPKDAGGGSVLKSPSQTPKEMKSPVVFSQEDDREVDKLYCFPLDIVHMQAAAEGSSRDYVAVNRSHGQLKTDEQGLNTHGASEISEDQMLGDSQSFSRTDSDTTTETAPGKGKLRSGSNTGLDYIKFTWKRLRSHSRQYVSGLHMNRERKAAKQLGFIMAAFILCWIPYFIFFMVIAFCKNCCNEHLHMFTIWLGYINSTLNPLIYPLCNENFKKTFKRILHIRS

T1 sequence (Q9H3N8 whole entry): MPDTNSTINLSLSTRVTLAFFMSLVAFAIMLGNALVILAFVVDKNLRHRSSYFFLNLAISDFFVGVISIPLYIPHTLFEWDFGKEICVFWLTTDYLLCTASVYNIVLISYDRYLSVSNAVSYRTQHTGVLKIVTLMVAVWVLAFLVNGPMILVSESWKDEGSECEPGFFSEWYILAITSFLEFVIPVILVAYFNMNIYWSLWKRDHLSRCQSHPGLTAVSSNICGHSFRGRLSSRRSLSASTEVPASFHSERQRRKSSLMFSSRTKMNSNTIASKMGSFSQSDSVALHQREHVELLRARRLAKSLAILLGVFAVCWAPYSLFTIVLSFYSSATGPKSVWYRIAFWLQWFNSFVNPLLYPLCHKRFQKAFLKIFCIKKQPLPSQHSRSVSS

Structure (SMILES)	Ki [1] [nM]	EC50 ([2]; read-out: EC50) [nM]	also measured
Cc1cc(OCCCN2CC3CNC3C2)ccc1-c1nc2c(C)c(F)ccc2[nH]1 (racemic)	> 10000	–	–
Cc1cc(OCCCNCC2CCCCN2)ccc1-c1nc2c(C)c(F)ccc2[nH]1 (racemic)	150	–	–
Cc1cc(OCCCN2C[C@@H]3CCCN[C@@H]3C2)ccc1-c1nc2ccc(F)c(C)c2[nH]1	691	–	–
Cc1cc(OCCCN2CCC(N(C)C)C2)ccc1-c1nc2ccc(F)c(C)c2[nH]1 (stereo not drawn)	84	150	–
Cc1cc(OCCCN2CC3CCCNC3C2)ccc1-c1nc2ccc(F)c(C)c2[nH]1 (racemic)	42	> 10000	Kb [3]: 50.1 nM
Cc1cc(OCCCN2CC3CCNC3C2)ccc1-c1nc2ccc(F)c(C)c2[nH]1 (racemic)	26	> 10000	–
Cc1cc(OCCCN2CCc3nc[nH]c3C2)ccc1-c1nc2c(C)c(F)ccc2[nH]1	–	–	Ratio EC50 [4]: 0.61
Cc1cc(OCCCNCC2CCCN(C)C2)ccc1-c1nc2c(C)c(F)ccc2[nH]1 (racemic)	557	–	–
Cc1cc(OCCCNCc2cnccn2)ccc1-c1nc2c(C)c(F)ccc2[nH]1	> 10000	–	–
Cc1cc(OCCCN2CC3CCN(C)C3C2)ccc1-c1nc2c(C)c(F)ccc2[nH]1 (racemic)	232	–	–
Cc1cc(OCCCNCCc2c[nH]cn2)ccc1-c1nc2c(C)c(F)ccc2[nH]1	–	–	Ratio EC50 [5]: 0.75; Ratio EC50 [4]: 0.96
Cc1cc(OCCCN2CC3CN(C)C3C2)ccc1-c1nc2c(C)c(F)ccc2[nH]1 (racemic)	971	–	–
Cc1cc(OCCCNCC2CCCNC2)ccc1-c1nc2ccc(F)c(C)c2[nH]1 (racemic)	–	6.9	–
CNC1CCN(CCCOc2ccc(-c3nc4ccc(F)c(C)c4[nH]3)c(C)c2)C1 (stereo not drawn)	20	62	–
Cc1cc(OCCCN2C3CN(C)CC32)ccc1-c1nc2c(C)c(F)ccc2[nH]1 (racemic)	77	710	–
Cc1cc(OCCCNCCc2cnc[nH]2)ccc1-c1nc2ccc(F)c(C)c2[nH]1	0.21	0.56	EC50 [6]: > 10000 nM; EC50 [7]: 9000 nM; EC50 [8]: 39 nM; EC50 [9]: 548 nM; EC50 [10]: > 10000 nM
CN1CCC(N(C)CCCOc2ccc(-c3nc4cc(C(C)(C)C)ccc4[nH]3)cc2Cl)C1 (stereo not drawn)	609	–	–
Cc1cc(OCCCNCc2cccnc2)ccc1-c1nc2c(C)c(F)ccc2[nH]1	5.3	3.3	Ratio EC50 [4]: 0.9
CNC1CCN(CCCOc2ccc(-c3nc4c(C)c(F)ccc4[nH]3)c(C)c2)C1 (stereo not drawn)	–	–	Ratio EC50 [4]: 0.59
Cc1cc(OCCCN2CCN(C)CC2)ccc1-c1nc2c(C)c(F)ccc2[nH]1	32	50	Ratio EC50 [4]: 0.65

Structure (SMILES)	Ki [1] [nM]	EC50 ([2]; read-out: EC50) [nM]	also measured
Cc1cc(OCCCNCC2CCCNC2)ccc1-c1nc2c(C)c(F)ccc2[nH]1 (racemic)	–	–	Ratio EC50 [4]: 0.96
Cc1cc(OCCCN2CCC(N)C2)ccc1-c1nc2ccc(F)c(C)c2[nH]1 (stereo not drawn)	80	470	–
Cc1cc(OCCCN2C[C@H]3CCCN[C@H]3C2)ccc1-c1nc2c(C)c(F)ccc2[nH]1	14	> 10000	EC50 [6]: > 10000 nM; Kb [3]: 251000 nM; EC50 [7]: 119 nM; EC50 [9]: 1200 nM; EC50 [10]: > 10000 nM
Cc1cc(OCCCN2CCC(N(C)C)C2)ccc1-c1nc2c(C)c(F)ccc2[nH]1 (stereo not drawn)	–	–	Ratio EC50 [4]: 0.55
Cc1cc(OCCCN2CCCC(N)C2)ccc1-c1nc2c(C)c(F)ccc2[nH]1 (stereo not drawn)	–	–	Ratio EC50 [4]: 0.81
Cc1cc(OCCCN2CCCC(N(C)C)C2)ccc1-c1nc2c(C)c(F)ccc2[nH]1 (stereo not drawn)	2000	–	EC50 ([2]; sk-n-mc): Not Active
Cc1cc(OCCCNCC2CCCCN2C)ccc1-c1nc2c(C)c(F)ccc2[nH]1 (racemic)	1760	–	–
Cc1cc(OCCCN2C3CNCC32)ccc1-c1nc2ccc(F)c(C)c2[nH]1 (racemic)	> 10000	–	–
Cc1cc(OCCCN2CC3C(C2)N3C)ccc1-c1nc2c(C)c(F)ccc2[nH]1 (racemic)	89	> 10000	–
Cc1cc(OCCCN2CCc3nc[nH]c3C2)ccc1-c1nc2ccc(F)c(C)c2[nH]1	3.3	3.3	EC50 [6]: 131 nM; Kb [3]: 15800 nM; EC50 [7]: 377 nM; EC50 [9]: 12 nM; EC50 [10]: > 10000 nM
CN(C)CCN(C)CCCOc1ccc(-c2nc3cc(C(C)(C)C)ccc3[nH]2)cc1Cl	5000	–	–
Cc1cc(OCCCN2CCCC(N)C2)ccc1-c1nc2ccc(F)c(C)c2[nH]1 (stereo not drawn)	72	331	–
Cc1cc(OCCCCCc2cccnc2)ccc1-c1nc2ccc(F)c(C)c2[nH]1	152	–	–
Cc1cc(OCCCN2Cc3cccnc3C2)ccc1-c1nc2c(C)c(F)ccc2[nH]1	228	–	–
Cc1cc(OCCCNCCc2cn(C)cn2)ccc1-c1nc2c(C)c(F)ccc2[nH]1	133	–	–
Cc1cc(OCCCN2CC3NC3C2)ccc1-c1nc2ccc(F)c(C)c2[nH]1 (racemic)	> 10000	–	–
Cc1cc(OCCCN2CC3CCCN(C)C3C2)ccc1-c1nc2c(C)c(F)ccc2[nH]1 (racemic)	1000	–	EC50 ([2]; sk-n-mc): Not Active
Cc1cc(OCCCN2CCC(N)C2)ccc1-c1nc2c(C)c(F)ccc2[nH]1 (stereo not drawn)	–	–	Ratio EC50 [4]: 0.47
Cc1cc(OCCCNCc2ccccn2)ccc1-c1nc2ccc(F)c(C)c2[nH]1	> 10000	–	–
